Reference: patent US20250230171A1 (MOMA Therapeutics, Inc., priority 2023, published 2025)
pIC50: −log10 of the molar value. Where two headings read alike, the source gives them in different places.

Columns and labels:
DLD1 BRCA2 (−/−) cells = experiment: 7-day cell viability assay (CellTiter-Glo), DLD1 BRCA2 (−/−); format: cell-based, human; details: Homo sapiens, DLD-1, 168 h, n=2, read-out: Viability IC50 (uM) DLD1 BRCA2 null
Procedure, shortened: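 7-day growth assay in DLD1 cells with or without BRCA2; seeding densities chosen to keep log-linear growth. Compound: 10 uM top, 3-fold, 9 points. Endpoint: CTG ATP luminescence at RT.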

[1] = target: biotinylated Avi-POLθ[2-894] (Homo sapiens (Human), UniProt O75417); experiment: POLθ ATPase assay (ADP-Glo); details: n=2, read-out: Biochemical ATPase ADPGlo IC50
Sequence of biotinylated Avi-POLθ[2-894] (O75417 2-894): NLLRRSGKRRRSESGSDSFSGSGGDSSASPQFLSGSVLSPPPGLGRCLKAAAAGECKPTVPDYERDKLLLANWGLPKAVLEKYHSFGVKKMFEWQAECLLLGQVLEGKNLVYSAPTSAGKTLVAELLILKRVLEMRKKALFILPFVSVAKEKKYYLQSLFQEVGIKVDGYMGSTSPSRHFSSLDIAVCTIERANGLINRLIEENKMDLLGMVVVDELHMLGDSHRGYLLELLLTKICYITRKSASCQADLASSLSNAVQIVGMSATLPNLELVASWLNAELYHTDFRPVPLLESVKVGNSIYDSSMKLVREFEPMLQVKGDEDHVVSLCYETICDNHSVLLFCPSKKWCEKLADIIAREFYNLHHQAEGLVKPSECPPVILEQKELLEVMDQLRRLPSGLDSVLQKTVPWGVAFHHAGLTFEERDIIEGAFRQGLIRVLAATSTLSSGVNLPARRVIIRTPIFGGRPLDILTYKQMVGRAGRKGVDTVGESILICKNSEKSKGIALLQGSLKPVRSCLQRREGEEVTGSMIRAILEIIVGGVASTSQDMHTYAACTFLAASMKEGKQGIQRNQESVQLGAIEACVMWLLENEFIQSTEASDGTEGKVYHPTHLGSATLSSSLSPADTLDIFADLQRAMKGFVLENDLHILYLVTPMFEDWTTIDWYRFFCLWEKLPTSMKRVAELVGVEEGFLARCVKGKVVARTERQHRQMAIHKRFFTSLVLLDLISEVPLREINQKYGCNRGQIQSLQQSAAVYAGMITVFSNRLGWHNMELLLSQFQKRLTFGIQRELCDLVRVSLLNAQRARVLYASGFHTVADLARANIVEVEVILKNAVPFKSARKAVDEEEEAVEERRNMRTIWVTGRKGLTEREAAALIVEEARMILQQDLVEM

DLD1 WT cells = experiment: 7-day cell viability assay (CellTiter-Glo), DLD1 parental (WT); format: cell-based, human; details: Homo sapiens, DLD-1, 168 h, n=2

Compound	IC50 (DLD1 BRCA2 (−/−) cells; 7-day viability)	pIC50 [1]	IC50 (DLD1 WT cells; 7-day viability)	IC50 (DLD1 BRCA2 (−/−) cells; 7-day CellTiter-Glo)	pIC50 ([1]; POLθ ATPase, ADP-Glo)	IC50 (DLD1 WT cells; 7-day CellTiter-Glo)
COc1cnc(Cl)cc1-c1cc(C)ncc1C(=O)Nc1nc2c(s1)CC(Nc1ccccc1)CC2 (stereo not drawn)	0.1 to 0.25 µM	7.82 to 9.00	≥ 10 µM	–	–	–
COc1ccc(C#N)cc1-c1cc(C)ncc1C(=O)Nc1nc2c(s1)CN(S(=O)(=O)NC1CC1)C2	≥ 2 µM	7.82 to 9.00	≥ 10 µM	–	–	–
COc1ccc(C#N)cc1-c1cc(C)ncc1C(=O)Nc1nc2c(s1)CN(C(=O)C1CCCC1)C2	0.5 to 2 µM	7.82 to 9.00	≥ 10 µM	–	–	–
COc1ccc(C#N)cc1-c1cc(C)ncc1C(=O)Nc1nc2c(s1)CN(C(=O)[C@H]1C[C@@H](OC)C1)C2	0.5 to 2 µM	7.82 to 9.00	≥ 10 µM	–	–	–
COc1ccc(C#N)cc1-c1cc(C)ncc1C(=O)Nc1nc2c(s1)CN(S(=O)(=O)N1CCOCC1)C2	≥ 2 µM	7.82 to 9.00	≥ 10 µM	–	–	–
COc1ccc(C#N)cc1-c1cc(C)ncc1C(=O)Nc1nc2c(s1)CN(S(=O)(=O)N1CCCC1)C2	0.5 to 2 µM	7.82 to 9.00	≥ 10 µM	–	–	–
COc1ccc(C#N)cc1-c1cc(C)ncc1C(=O)Nc1nc2c(s1)CN(C(=O)c1ccncc1)C2	≥ 2 µM	7.82 to 9.00	≥ 10 µM	–	–	–
COc1ccc(C#N)cc1-c1cc(C)ncc1C(=O)Nc1nc2c(s1)CN(S(=O)(=O)N1CCCCC1)C2	0.5 to 2 µM	7.82 to 9.00	≥ 10 µM	–	–	–
COc1ccc(C#N)cc1-c1cc(C)ncc1C(=O)Nc1nc2c(s1)CN(S(=O)(=O)NCC(F)(F)F)C2	≥ 2 µM	7.82 to 9.00	≥ 10 µM	–	–	–
COc1ccc(C#N)cc1-c1cc(C)ncc1C(=O)Nc1nc2c(s1)CN(C(=O)C1CCCCC1)C2	0.5 to 2 µM	7.82 to 9.00	≥ 10 µM	–	–	–
COc1ccc(C#N)cc1-c1cc(C)ncc1C(=O)Nc1nc2c(s1)CN(S(=O)(=O)C1CC1)C2	≥ 2 µM	7.30 to 7.82	≥ 10 µM	–	–	–
COc1ccc(C#N)cc1-c1cc(C)ncc1C(=O)Nc1nc2c(s1)CN(S(=O)(=O)NC(C)(C)C)C2	≥ 2 µM	7.82 to 9.00	≥ 10 µM	–	–	–
COc1ccc(C#N)cc1-c1cc(C)ncc1C(=O)Nc1nc2c(s1)CN(C(=O)c1ncccc1C)C2	0.5 to 2 µM	7.82 to 9.00	≥ 10 µM	–	–	–
COc1ccc(C#N)cc1-c1cc(C)ncc1C(=O)Nc1nc2c(s1)CN(S(=O)(=O)NCC(C)C)C2	0.5 to 2 µM	7.82 to 9.00	≥ 10 µM	–	–	–
COc1ccc(C#N)cc1-c1cc(C)ncc1C(=O)Nc1nc2c(s1)CC(Nc1ccccc1)CC2 (stereo not drawn)	0.1 to 0.25 µM	7.82 to 9.00	≥ 10 µM	–	–	–
COc1ccc(C#N)cc1-c1cc(C)ncc1C(=O)Nc1nc2c(s1)CN(C(=O)c1cccc(C)n1)C2	0.5 to 2 µM	7.82 to 9.00	≥ 10 µM	–	–	–
COc1ccccc1-c1cc(C)ncc1C(=O)Nc1nc2c(s1)CN(C(=O)C1CC1)C2	≥ 2 µM	6.05 to 6.82	≥ 10 µM	–	–	–
COc1ccccc1-c1cc(C)ncc1C(=O)Nc1nc2c(s1)CN(C(=O)C1CC1)CC2	≥ 2 µM	≤ 6.05	0.5 to 2 µM	–	–	–
COc1ccccc1-c1cc(C)ncc1C(=O)Nc1nc2c(s1)CN(c1ccc(Cl)cc1)CC2	≥ 2 µM	≤ 6.05	≥ 10 µM	–	–	–
COc1ccccc1-c1cc(C)ncc1C(=O)Nc1nc2c(s1)CN(CC1CCCCC1)CC2	≥ 2 µM	≤ 6.05	≥ 10 µM	–	–	–
COc1ccccc1-c1cc(C)ncc1C(=O)Nc1nc2c(s1)CN(C(=O)c1ccccc1)CC2	0.5 to 2 µM	≤ 6.05	0.5 to 2 µM	–	–	–
COc1ccccc1-c1cc(C)ncc1C(=O)Nc1nc2c(s1)CN(Cc1ccccc1)CC2	0.5 to 2 µM	≤ 6.05	0.5 to 2 µM	–	–	–
COc1ccccc1-c1cc(C)ncc1C(=O)Nc1nc2c(s1)C(=O)NCC2	≥ 2 µM	≤ 6.05	≥ 10 µM	–	–	–
COc1ccccc1-c1cc(C)ncc1C(=O)Nc1nc2c(s1)CNCC2	≥ 2 µM	≤ 6.05	≥ 10 µM	–	–	–
COc1cnc(Cl)cc1-c1cc(C)ncc1C(=O)Nc1nc2c(s1)CN(C(=O)c1cnc(C(F)(F)F)cn1)C2	–	–	–	0.001 to 0.1 µM	7.82 to 9.00	≥ 10 µM
COc1cnc(Cl)cc1-c1cc(C)ncc1C(=O)Nc1nc2c(s1)CN(C(=O)c1ccc(F)c(C(F)F)c1)C2	–	–	–	0.001 to 0.1 µM	7.82 to 9.00	5 to 10 µM
COc1cnc(Cl)cc1-c1cc(C)ncc1C(=O)Nc1nc2c(s1)CN(C(=O)c1cccc(Cl)c1OC)C2	–	–	–	0.001 to 0.1 µM	7.82 to 9.00	5 to 10 µM
COc1cnc(Cl)cc1-c1cc(C)ncc1C(=O)Nc1nc2c(s1)CN(C(=O)c1ccc(C(F)(F)F)c(Cl)n1)C2	–	–	–	0.001 to 0.1 µM	7.82 to 9.00	≥ 10 µM

Compound	IC50 (DLD1 BRCA2 (−/−) cells; 7-day viability)	pIC50 [1]	IC50 (DLD1 WT cells; 7-day viability)	IC50 (DLD1 BRCA2 (−/−) cells; 7-day CellTiter-Glo)	pIC50 ([1]; POLθ ATPase, ADP-Glo)	IC50 (DLD1 WT cells; 7-day CellTiter-Glo)
COc1ccc(C(=O)N2Cc3nc(NC(=O)c4cnc(C)cc4-c4cc(Cl)ncc4OC)sc3C2)c(OC)n1	–	–	–	0.001 to 0.1 µM	7.82 to 9.00	5 to 10 µM
COc1cnc(Cl)cc1-c1cc(C)ncc1C(=O)Nc1nc2c(s1)CN(C(=O)c1ncc(Br)cc1OC)C2	–	–	–	0.1 to 0.25 µM	7.82 to 9.00	≥ 10 µM
COc1cnc(Cl)cc1-c1cc(C)ncc1C(=O)Nc1nc2c(s1)CN(C(=O)c1ccc(C(F)F)cc1Cl)C2	–	–	–	0.001 to 0.1 µM	7.82 to 9.00	≥ 10 µM
COc1cnc(Cl)cc1-c1cc(C)ncc1C(=O)Nc1nc2c(s1)CN(C(=O)c1nc(C(F)F)ccc1Cl)C2	–	–	–	0.001 to 0.1 µM	7.82 to 9.00	≥ 10 µM
COc1ccc(Cl)c(C(=O)N2Cc3nc(NC(=O)c4cnc(C)cc4-c4cc(Cl)ncc4OC)sc3C2)n1	–	–	–	0.001 to 0.1 µM	7.82 to 9.00	≥ 10 µM
COc1cnc(Cl)cc1-c1cc(C)ncc1C(=O)Nc1nc2c(s1)CN(C(=O)c1nccc(Cl)c1C)C2	–	–	–	0.001 to 0.1 µM	7.82 to 9.00	≥ 10 µM
COc1cnc(Cl)cc1-c1cc(C)ncc1C(=O)Nc1nc2c(s1)CN(C(=O)c1ccc(F)c(C(F)F)n1)C2	–	–	–	0.001 to 0.1 µM	7.82 to 9.00	≥ 10 µM
COc1cnc(Cl)cc1-c1cc(C)ncc1C(=O)Nc1nc2c(s1)CN(C(=O)c1ccc(C(F)F)nc1Cl)C2	–	–	–	0.001 to 0.1 µM	7.82 to 9.00	≥ 10 µM
COc1cnc(Cl)cc1-c1cc(C)ncc1C(=O)Nc1nc2c(s1)CN(C(=O)c1nc3ccccc3o1)C2	–	–	–	0.001 to 0.1 µM	7.82 to 9.00	≥ 10 µM
COc1cccc(C(=O)N2Cc3nc(NC(=O)c4cnc(C)cc4-c4cc(Cl)ncc4OC)sc3C2)n1	–	–	–	0.001 to 0.1 µM	7.82 to 9.00	2 to 5 µM
COc1ccc(C(=O)N2Cc3nc(NC(=O)c4cnc(C)cc4-c4cc(Cl)ncc4OC)sc3C2)c(Cl)n1	–	–	–	0.001 to 0.1 µM	7.82 to 9.00	≥ 10 µM
COc1ccc(C#N)cc1-c1cc(C)ncc1C(=O)Nc1nc2c(s1)CN(C(=O)c1cccc(C(F)F)c1)C2	–	–	–	0.1 to 0.25 µM	7.82 to 9.00	≥ 10 µM
COc1cnc(Cl)cc1-c1cc(C)ncc1C(=O)Nc1nc2c(s1)CN(C(=O)c1cnc(OC)c(Cl)c1)C2	–	–	–	0.001 to 0.1 µM	7.82 to 9.00	5 to 10 µM
COc1cnc(Cl)cc1-c1cc(C)ncc1C(=O)Nc1nc2c(s1)CN(C(=O)c1ccnc(C)n1)C2	–	–	–	0.001 to 0.1 µM	7.82 to 9.00	5 to 10 µM
COc1ccc(C#N)cc1-c1cc(C)ncc1C(=O)Nc1nc2c(s1)CN(C(=O)c1ccc(C(F)F)c(F)c1)C2	–	–	–	0.001 to 0.1 µM	7.82 to 9.00	≥ 10 µM
COc1cnc(Cl)cc1-c1cc(C)ncc1C(=O)Nc1nc2c(s1)CN(C(=O)c1cnc(C)cn1)C2	–	–	–	0.001 to 0.1 µM	7.82 to 9.00	2 to 5 µM
COc1cc(C(=O)N2Cc3nc(NC(=O)c4cnc(C)cc4-c4cc(C#N)ccc4OC)sc3C2)ccc1Cl	–	–	–	0.001 to 0.1 µM	7.82 to 9.00	5 to 10 µM
COc1ccc(C(=O)N2Cc3nc(NC(=O)c4cnc(C)cc4-c4cc(Cl)ncc4OC)sc3C2)cn1	–	–	–	0.001 to 0.1 µM	7.82 to 9.00	≥ 10 µM
COc1cc(Cl)nc(C(=O)N2Cc3nc(NC(=O)c4cnc(C)cc4-c4cc(Cl)ncc4OC)sc3C2)c1	–	–	–	0.001 to 0.1 µM	7.82 to 9.00	≥ 10 µM
COc1ccc(C#N)cc1-c1cc(C)ncc1C(=O)Nc1nc2c(s1)CN(C(=O)c1cccc(OC)c1Cl)C2	–	–	–	0.001 to 0.1 µM	7.82 to 9.00	≥ 10 µM
COc1nccc(C(=O)N2Cc3nc(NC(=O)c4cnc(C)cc4-c4cc(Cl)ncc4OC)sc3C2)n1	–	–	–	0.001 to 0.1 µM	7.82 to 9.00	≥ 10 µM
COc1cnc(Cl)cc1-c1cc(C)ncc1C(=O)Nc1nc2c(s1)CN(C(=O)c1cnc(C(F)F)nc1)C2	–	–	–	0.001 to 0.1 µM	7.82 to 9.00	≥ 10 µM
COc1cc(Cl)cc(C(=O)N2Cc3nc(NC(=O)c4cnc(C)cc4-c4cc(Cl)ncc4OC)sc3C2)n1	–	–	–	0.001 to 0.1 µM	7.82 to 9.00	≥ 10 µM
COc1cnc(Cl)cc1-c1cc(C)ncc1C(=O)Nc1nc2c(s1)CN(C(=O)c1nccn3nccc13)C2	–	–	–	0.001 to 0.1 µM	7.82 to 9.00	≥ 10 µM
COc1cnc(Cl)cc1-c1cc(C)ncc1C(=O)Nc1nc2c(s1)CN(C(=O)c1ccc(OC)c(C(F)F)n1)C2	–	–	–	0.001 to 0.1 µM	7.82 to 9.00	≥ 10 µM
COc1nnc(Cl)cc1-c1cc(C)ncc1C(=O)Nc1nc2c(s1)CN(C(=O)c1ccc(C(F)F)cn1)C2	–	–	–	0.001 to 0.1 µM	7.82 to 9.00	≥ 10 µM
COc1cnc(Cl)cc1-c1cc(C)ncc1C(=O)Nc1nc2c(s1)CN(C(=O)c1ccc(OC(F)F)nc1Cl)C2	–	–	–	0.001 to 0.1 µM	7.82 to 9.00	≥ 10 µM
